This passage reports minimal effective concentration and melting point results from patent publication US6756382B2, “Amide substituted imidazoquinolines” (3M Innovative Properties Company, priority 1999, dated 2004).

For data set [1], the system named is interferon (α). As to the kind of experiment: Cytokine induction in human cells: interferon secreted by PBMCs, bioassay (A549 cells challenged with encephalomyocarditis virus). The data set is classed as cell-based. To be noted: PBMC, incubated 18 to 24 hours, interferon determined using the bioassay method, read-out: Lowest Effective Concentration (μM) Interferon. The text has this: An in vitro human blood cell system was used to assess cytokine induction by compounds of the invention. Activity is based on the measurement of interferon and tumor necrosis factor (α) (IFN and TNF, respectively) secreted into culture media as described by Testerman et. al. In “Cytokine Induction by the Immunomodulators Imiquimod and S-27609”, Journal of Leukocyte Biology, 58, 365-372 (September, 1995).
Whole blood is collected by venipuncture into EDTA vacutainer tubes from healthy human donors. Peripheral blood mononuclear cells (PBMCs) are separated from whole blood by density gradient centrifugation using Histopaque®-1077 (Sigma Chemicals, St. Louis, Mo.). The PBMCs are suspended at 3-4×10^6 cells/mL in RPMI 1640 medium containing 10% fetal bovine serum, 2 mM L-glutamine and 1% penicillin/streptomycin solution (RPMI complete). The PBMC suspension is added to 48 well flat bottom sterile tissue culture plates (Costar, Cambridge, Mass. or Becton Dickinson Labware, Lincoln Park, N.J.) containing an equal volume of RPMI complete media containing test compound.
The compounds are solubilized in dimethyl sulfoxide (DMSO). The DMSO concentration should not exceed a final concentration of 1% for addition to the culture wells.
The solution of test compound is added at 60 μM to the first well containing RPMI complete and serial (three fold or ten fold) dilutions are made. The PBMC suspension is then added to the wells in an equal volume, bringing the test compound concentrations to the desired range. The final concentration of PBMC suspension is 1.5-2×10^6 cells/mL. The plates are covered with sterile plastic lids, mixed gently and then incubated for 18 to 24 hours at 37° C. in a 5% carbon dioxide atmosphere.
Following incubation the plates are centrifuged for 5-10 minutes at 1000 rpm (˜200×g) at 4° C. The cell culture supernatant is removed with a sterile polypropylene pipet and transferred to sterile polypropylene tubes. Samples are maintained at −30 to −70° C. until analysis. The samples are analyzed for interferon (α) by either ELISA or bioassay and for tumor necrosis factor (α) by ELISA.
Interferon is determined by bioassay using A549 human lung carcinoma cells challenged with encephalomyocarditis. The details of the bioassay method have been described by G. L. Brennan and L. H. Kronenberg in “Automated Bioassay of Interferons in Micro-test Plates”, Biotechniques, June/July, 78, 1983, incorporated herein by reference. Briefly stated the method is as follows: A549 cells are incubated with dilutions of samples or a standard interferon at 37° C. for 24 hours. The incubated cells are then infected with an inoculum of encephalomyocarditis virus. The infected cells are incubated for an additional 24 hours at 37° C. before evaluating for viral cytopathic effect. The viral cytopathic effect is quantified by staining with crystal violet followed by visual scoring of the plates. Results are expressed as alpha reference units/mL based on the value obtained for NIH Human Leukocyte IFN standard.
The table below lists the lowest concentration found to induce interferon and the lowest concentration found to induce tumor necrosis factor for each compound. […] Unless otherwise indicated, the interferon biosynthesis was determined by ELISA.

Data set [2] relates to tumor necrosis factor (α). The experiment in a line: Cytokine induction in human cells: tumor necrosis factor (α) secreted by PBMCs, ELISA. The data set is classed as cell-based. To be noted: PBMC, incubated 18 to 24 hours, TNF determined by ELISA, read-out: Lowest Effective Concentration (μM) Tumor Necrosis Factor. The gist of the method: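 Human donor PBMCs at final 1.5-2×10^6 cells/mL in RPMI with 10% FBS incubated 18 to 24 h at 37° C. with serially diluted compound, DMSO at most 1% final. Supernatant TNF-α measured by ELISA; value is the lowest concentration inducing TNF.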
For orientation: An ELISA detects its analyte on a solid surface through an enzyme-linked reagent.

Data set [3] has as its system interferon (α). The experiment in a line: Cytokine induction in human cells: interferon secreted by PBMCs, ELISA. The data set is classed as cell-based. To be noted: PBMC, incubated 18 to 24 hours, interferon determined by ELISA, read-out: Lowest Effective Concentration (μM) Interferon. The gist of the method:
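Human donor PBMCs at 1.5-2×10^6 cells/mL final in RPMI with 10% FBS, exposed to serially diluted compound (≤1% DMSO) for 18–24 h at 37 °C, 5% CO2. Supernatant interferon (α) measured by ELISA; value is lowest concentration inducing interferon.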

Some results are limits rather than exact numbers.

In the case of `Nc1nc2ccccc2c2c1ncn2CCCCNC(=O)c1c(F)c(F)c(F)c(F)c1F` [Example 68], the minimal effective concentration is 1.11 µM in the data set with interferon (α) [1] and 10 µM in data set [2].

Consider `Nc1nc2ccccc2c2c1ncn2CCCCNC(=O)c1ccccc1Cl` [Example 69], for which the minimal effective concentration with interferon (α) [1] was 0.12 µM; in data set [2], 1.11 µM. As to `Nc1nc2ccccc2c2c1ncn2CCCCNC(=O)c1c(Cl)cccc1Cl` [Example 71], the minimal effective concentration in the data set on interferon (α) [1] is 0.12 µM; in data set [2] it was 3.33 µM. `Nc1nc2ccccc2c2c1ncn2CCCCNC(=O)c1ccc(F)cc1` [Example 72]: the minimal effective concentration was 0.37 µM with interferon (α) [1] and 10 µM in data set [2]. In the case of `Nc1nc2ccccc2c2c1ncn2CCCCNC(=O)c1ccc(Cl)cc1` [Example 73], the minimal effective concentration turned out to be 0.37 µM with interferon (α) [1] and 10 µM in data set [2]. For the compound `COc1ccc(C(=O)NCCCCn2cnc3c(N)nc4ccccc4c32)cc1` [Example 74], the values for the minimal effective concentration (in the data set on interferon (α) [1]; in data set [2]) were 0.37 µM and 10 µM, respectively. Turning to `Nc1nc2ccccc2c2c1ncn2CCCCNC(=O)c1ccc(C(F)(F)F)cc1` [Example 75], in the data set on interferon (α) [1], the minimal effective concentration came to 1.11 µM.

For `CC(C)(C)c1ccc(C(=O)NCCCCn2cnc3c(N)nc4ccccc4c32)cc1` [Example 76], the minimal effective concentration in the data set on interferon (α) [1] stood at 3.33 µM. With `Cc1ccc(C(=O)NCCCCn2cnc3c(N)nc4ccccc4c32)cc1` [Example 77], the minimal effective concentration came to 1.11 µM with interferon (α) [1] and 10 µM in data set [2]. Turning to `Nc1nc2ccccc2c2c1ncn2CCCCNC(=O)Cc1ccccc1` [Example 78], the minimal effective concentration in the data set on interferon (α) [1] worked out at 0.12 µM; in data set [2] it was 10 µM.

Regarding `Nc1nc2ccccc2c2c1ncn2CCCCNC(=O)/C=C/c1ccccc1` [Example 79], the minimal effective concentration was 0.37 µM in the data set with interferon (α) [1] and above 30 µM in data set [2]. `CC(C)(C)CC(=O)NCCCCn1cnc2c(N)nc3ccccc3c21` [Example 80]: the values for the minimal effective concentration (with interferon (α) [1]; in data set [2]) were 1.11 µM and 10 µM, respectively. On to `Nc1nc2ccccc2c2c1ncn2CCCCNC(=O)C1CC1` [Example 81], for which the minimal effective concentration was 3.33 µM in the data set with interferon (α) [1] and 30 µM in data set [2]. Consider `Nc1nc2ccccc2c2c1ncn2CCCCNC(=O)C1CCCC1` [Example 82], for which the values for the minimal effective concentration (in the data set with interferon (α) [1]; in data set [2]) were 0.12 µM and 10 µM, respectively.

Take `Nc1nc2ccccc2c2c1ncn2CCCCNC(=O)CCC1CCCC1` [Example 83]: the minimal effective concentration with interferon (α) [1] came out at 1.11 µM. For the compound `Nc1nc2ccccc2c2c1ncn2CCCCNC(=O)C1CCCCC1` [Example 84], the minimal effective concentration with interferon (α) [1] amounted to 0.12 µM; in data set [2], 10 µM. One may read the melting point as the temperature of the solid-liquid transition. For `Nc1nc2ccccc2c2c1nc(CCCOc1ccccc1)n2CCCNC(=O)c1ccccc1` [Example 194, N-{3-[4-amino-2-(3-phenoxypropyl)-1H-imidazo[4,5-c]quinolin-1-yl]propyl}benzamide], the melting point lay in the range of 192 to 194 °C. Moreover, the minimal effective concentration with interferon (α) [3] was above 30 µM. Also, the minimal effective concentration in data set [2] was 10 µM. `COCCc1nc2c(N)nc3ccccc3c2n1CCCNC(=O)c1ccccc1` [Example 196, N-{3-[4-amino-2-(2-methoxyethyl)-1H-imidazo[4,5-c]quinolin-1-yl]propyl}benzamide] gave a melting point of 183 to 186 °C. Moreover, in the data set on interferon (α) [3], the minimal effective concentration worked out at 0.01 µM. In addition, the minimal effective concentration in data set [2] turned out to be 0.37 µM.
